Results from US7704723B2, “Isolation and characterization of novel clostridial species” (The Board of Regents For Oklahoma State University, priority 2006, dated 2010).
Marks after values point to notes of the source that are not given here.

Experiments:
[1] = tested on: Clostridium ragsdalei strain P11; test: Growth of strain P11 on organic and gaseous substrates as sole carbon and energy sources; assay type: cell-based; conditions: for Growth with substrate: Clostridium ragsdalei, malate and formate examined at pH 5.0-6.5; for Substrate utilization, C. ragsdalei: strain P11, growth on substrate as sole carbon and energy source, final OD600
Procedure: (§1) Except for the deletion of NaHCO3 and an initial pH 6.3, growth on organic and gaseous substrates was performed as previously described (Tanner et. al., 1993). Resazurin (1 mg/L) was used as the redox indicator. Purified agar was added to the medium at a concentration of 2% for colony morphology description (Table 5). Heat labile substrates were filter sterilized (not autoclaved) and added from sterile stock solutions to a final concentration of 5 g/L before inoculation. The optimum temperature and pH (initial pH) was determined in medium containing fructose as the substrate. For determination of the optimum pH, media was buffered with HOMOPIPES (homopiperazine-N,N′-bis-2-[ethanesulfonic acid] (Research Organics, Cleveland, Ohio), MES (2-[N-morpholino]ethanesulfonic acid), or TES (N-tris [hydroxymethyl]methyl-2-aminoethanesulfonic acid) at (1.0 g/L). A 0.1 ml (˜2%) inoculum of fructose-grown cells was used to initiate growth. All media components used in these experiments were obtained from Sigma unless otherwise noted (Sigma Chemical Co., St. Louis, Mo.).
(§2) Analytical methods. […] For the substrate malate, utilization was analyzed by HPLC (“high-performance liquid chromatography”) equipped with a UV detector set at 214 nm using a Alltech, Prevail Organic Acid column (4.6×150 mm, 5 μm; Alltech, Deerfield, Mich.) with a mobile phase of 25 mM KH2PO4, pH 2.5 and 10% (v/v) methanol.

[2] = tested on: Clostridium ljungdahlii strain PETC; test: Growth of reference strain PETC on substrates as sole carbon and energy sources; assay type: cell-based; conditions: for Substrate utilization, C. ljungdahlii: strain PETC, growth on substrate as sole carbon and energy source, final OD600
Source text: Organisms. Clostridium ljundahlii strain PETC was obtained from a fructose stock culture maintained by Dr. Ralph S. Tanner and was used as the reference control strain. Strain P11 was obtained from an anaerobic enrichment inoculated with fresh water sediment from the Duck Pond at the University of Oklahoma by a procedure described previously (Bryant, 1972) under an atmosphere of CO:N2:CO2 (75:15:10) and an initial pH of 6.0. The carbon monoxide oxidizing clostridium described within was named Clostridium ragsdalei. This bacterium was designated strain P11 and deposited with the American Type Culture Collection as strain ATCC BAA-622.
as §1, §2

| Molecule | Growth with substrate [1] | Substrate utilization, C. ragsdalei [1] | Substrate utilization, C. ljungdahlii [2] | Growth with malate as the sole carbon source after adaptation ([2]; after incubation of about thirty days, pH 5.0-6.5) | Doubling time ([1]; strain P11 grown with the substrate under optimal conditions) [h⁻¹] |
| --- | --- | --- | --- | --- | --- |
| CCCO [1-Propanol] | chemoorganotrophic growth was observed | + (positive (indicates a final OD600 of greater than or equal to 0.1.)) | +^† (positive (indicates a final OD600 of greater than or equal to 0.1.)) |  |  |
| C[C@H](N)C(=O)O [Alanine] | chemoorganotrophic growth was observed |  |  |  |  |
| N#C[C@H](O[C@@H]1O[C@H](CO[C@@H]2O[C@H](CO)[C@@H](O)[C@H](O)[C@H]2O)[C@@H](O)[C@H](O)[C@H]1O)c1ccccc1 [Amygdalin] |  | − | − |  |  |
| O=C[C@@H](O)[C@H](O)[C@H](O)CO [Arabinose] |  | − |  |  |  |
| N=C(N)NCCC[C@H](N)C(=O)O [Arginine] |  | − |  |  |  |
| C[N+](C)(C)CC(=O)O [Betaine] |  | − | − |  |  |
| OC[C@H]1O[C@@H](O[C@H]2[C@H](O)[C@@H](O)[C@H](O)O[C@@H]2CO)[C@H](O)[C@@H](O)[C@@H]1O [Cellibiose] |  | − | − |  |  |
| O=C[C@@H](O)[C@H](O)CO [D (−) Threose] | chemoorganotrophic growth was observed |  |  |  |  |
| O=C[C@H](O)[C@H](O)CO [Erythrose] |  | − | − |  |  |
| O=C(CO)[C@@H](O)[C@H](O)[C@H](O)CO [Fructose] | chemoorganotrophic growth was observed |  |  |  |  |
| C[C@H](O)[C@@H](O)[C@@H](O)[C@H](O)C=O [Fucose] |  | − | − |  |  |
| O=C[C@H](O)[C@@H](O)[C@@H](O)[C@H](O)CO [Galactose] |  | − | − |  |  |
| O=C(O)[C@H](O)[C@@H](O)[C@H](O)[C@H](O)CO [Gluconic acid] |  | − |  |  |  |
| N[C@@H](CCC(=O)O)C(=O)O [Glutamate] | chemoorganotrophic growth was observed | + (positive (indicates a final OD600 of greater than or equal to 0.1.)) | +^† (positive (indicates a final OD600 of greater than or equal to 0.1.)) |  |  |
| NC(=O)CC[C@H](N)C(=O)O [Glutamine] |  | − | − |  |  |
| OCC(O)CO [Glycerol] |  | − | − |  |  |
| O=C(O)CO [Glycolic acid] |  | − | − |  |  |
| N[C@@H](Cc1c[nH]cn1)C(=O)O [Histidine] |  | − |  |  |  |
| O[C@H]1[C@H](O)[C@@H](O)[C@H](O)[C@@H](O)[C@H]1O [Inositol] |  | − | − |  |  |
| CC(C)O [Iso-propanol] |  | − | − |  |  |
| O=C[C@H](O)[C@@H](O)CO [L (+) Threose] |  | − | − |  |  |
| OC[C@H]1O[C@@H](O[C@H]2[C@H](O)[C@@H](O)C(O)O[C@@H]2CO)[C@H](O)[C@@H](O)[C@H]1O (some centres unmarked) [Lactose] |  | − | − |  |  |
| O=C(O)/C=C\C(=O)O [Maleic acid] |  | − | − |  |  |
| O=C(O)CC(O)C(=O)O (centres unmarked) [Malic acid] | did not initially support growth | − | − | able to grow |  |

| Molecule | Growth with substrate [1] | Substrate utilization, C. ragsdalei [1] | Substrate utilization, C. ljungdahlii [2] | Growth with malate as the sole carbon source after adaptation ([2]; after incubation of about thirty days, pH 5.0-6.5) | Doubling time ([1]; strain P11 grown with the substrate under optimal conditions) [h⁻¹] |
| --- | --- | --- | --- | --- | --- |
| OC[C@H]1O[C@H](O[C@H]2[C@H](O)[C@@H](O)[C@H](O)O[C@@H]2CO)[C@H](O)[C@@H](O)[C@@H]1O [Maltose] |  | − | − |  |  |
| OC[C@@H](O)[C@@H](O)[C@H](O)[C@H](O)CO [Mannitol] |  | − | − |  |  |
| OC[C@H]1O[C@H](OCC2O[C@@H](O)[C@H](O)[C@@H](O)[C@@H]2O)[C@H](O)[C@@H](O)[C@H]1O (some centres unmarked) [Melibiose] |  | − | − |  |  |
| OC[C@H]1O[C@@](CO)(O[C@H]2O[C@H](CO)[C@@H](O)[C@H](O)[C@H]2O)[C@@H](O[C@H]2O[C@H](CO)[C@@H](O)[C@H](O)[C@H]2O)[C@@H]1O [Melizitose] |  | − | − |  |  |
| CO [Methanol] |  | − | − |  |  |
| CC(=O)[O-].[Na+] [Na-Acetate] |  | − | − |  |  |
| O=C([O-])CC(O)(CC(=O)[O-])C(=O)[O-].[Na+].[Na+].[Na+] [Na-Citrate] |  | − | +* (positive (indicates a final OD600 of greater than or equal to 0.1.)) |  |  |
| O=C[O-].[Na+] [Na-Formate] | did not initially support growth | − | − |  |  |
| O=C([O-])/C=C/C(=O)[O-].[Na+].[Na+] [Na-Fumarate] |  | − |  |  |  |
| CC(O)C(=O)[O-].[Na+] (centres unmarked) [Na-Lactate] |  | − | − |  |  |
| CCC(=O)[O-].[Na+] [Na-Propionate] |  | − | − |  |  |
| CC(=O)C(=O)O [Na-Pyruvate] | chemoorganotrophic growth was observed |  |  |  |  |
| O=C([O-])CCC(=O)[O-].[Na+].[Na+] [Na-Succinate] |  | − | − |  |  |
| C[C@H](O)[C@H](O)[C@@H](O)[C@@H](O)C=O [Rhamnose] |  | − |  |  |  |
| OCc1ccccc1O[C@@H]1O[C@H](CO)[C@@H](O)[C@H](O)[C@H]1O [Salicin] |  | − | − |  |  |
| N[C@@H](CO)C(=O)O [Serine] | chemoorganotrophic growth was observed |  |  |  |  |
| OC[C@@H](O)[C@@H](O)[C@H](O)[C@@H](O)CO [Sorbitol] |  | − | − |  |  |
| OC[C@H]1O[C@@](CO)(O[C@H]2O[C@H](CO)[C@@H](O)[C@H](O)[C@H]2O)[C@@H](O)[C@@H]1O [Sucrose] | chemoorganotrophic growth was observed |  |  |  |  |
| OC[C@H]1O[C@H](O[C@H]2O[C@H](CO)[C@@H](O)[C@H](O)[C@H]2O)[C@H](O)[C@@H](O)[C@@H]1O [Trehalose] |  | − | − |  |  |
| O=C(CO)[C@@H](O[C@H]1O[C@H](CO)[C@@H](O)[C@H](O)[C@H]1O)[C@H](O)[C@H](O)CO [Turanose] |  | − | − |  |  |
| O=C[C@H](O)[C@@H](O)[C@H](O)CO [Xylose] | chemoorganotrophic growth was observed |  |  |  | 0.220 |
| O=C(O)CCC(=O)C(=O)O [alpha-ketoglutarate] |  | − | + (positive (indicates a final OD600 of greater than or equal to 0.1.)) |  |  |
| Cellulose |  | − | − |  |  |
| Glycogen |  | − | − |  |  |
